Patent US20190133985A1 (Orbus Therapeutics, Inc., priority 2016, published 2019)
Counter-ions that a name gives are not always drawn.

Key:
ADAM 32 gene = assay: Exon-Seq frequency of G/A mutation at chr8: 38,964,647 in U87MG cells; conditions: for mutation rate: TMZ EC-50 for 3 days then eflornithine 200 μM
GPR116 gene = assay: Exon-Seq frequency of C/T mutation at chr6: 46,867,771 in U87MG cells; conditions: for mutation rate: TMZ EC-20 for 3 days then eflornithine 100 μM
MUC16 gene = assay: Exon-Seq frequency of T/A mutation at chr19: 9,071,763 in U87MG cells; conditions: for mutation rate: TMZ EC-50 for 3 days then eflornithine 200 μM
low-grade gliomas = conditions: adjuvant temozolomide chemotherapy; TMZ-induced mutagenesis signature in RB and AKT-mTOR pathways; cited from earlier work
TP53BP1 gene = assay: Exon-Seq frequency of C/T mutation at chr15: 43,762,196 in U87MG cells; conditions: for mutation rate: TMZ EC-50 for 3 days then eflornithine 200 μM
U87MG cells = assay: Exon-Seq mutation frequency in glioblastoma cell line model (nucleotides susceptible to TMZ-induced mutations); assay type: cell-based, human
Experimental: Preliminary data analysis was performed to identify nucleotides susceptible to temozolomide (TMZ)-induced mutations per TMZ concentration. Mutation frequency results were analyzed for 13,040 nucleotide polymorphisms across 6,455 genes that have been previously identified as potentially cancer related based on their description in the Catalogue of Somatic Mutations in Cancer (COSMIC) database.
Statistical analysis of the Exon-Seq data was performed using JMP™ Software. The mutation frequencies were analyzed using ANOVA analysis of variance and the Student's t-test.

## Cn1nnc2c(C(N)=O)ncn2c1=O [TMZ, 4-methyl-5-oxo-2,3,4,6,8-pentazabicyclo[4.3.0]nona-2,7,9-triene-9-carboxamide]
ADAM 32 gene; TMZ EC-50, day 3
  mutation frequency: 63.6%
GPR116 gene; TMZ EC-20, day 3
  mutation frequency: 69.6%
MUC16 gene; TMZ EC-50, day 3
  mutation frequency: 64.0%
low-grade gliomas
  patients whose tumors showed hypermutation (alternative evolutionary path to high-grade glioma): 6 of 10
TP53BP1 gene; TMZ EC-50, day 3
  mutation frequency: 62.5%
U87MG cells; All three concentrations
  Number of nucleotides showing higher than 15% mutation frequency increase due to TMZ treatment: 97
U87MG cells; At least one concentration
  Number of nucleotides showing higher than 15% mutation frequency increase due to TMZ treatment: 876
U87MG cells; TMZ EC10, T = 3 days
  Mean Mutation Frequency: 57%
U87MG cells; TMZ EC10, 13,040 nucleotide polymorphisms across 6,455 genes
  Number of nucleotides showing higher than 15% mutation frequency increase due to TMZ treatment: 424
U87MG cells; TMZ EC20
  Number of nucleotides showing higher than 15% mutation frequency increase due to TMZ treatment: 436
U87MG cells; TMZ EC20, T = 3 days
  Mean Mutation Frequency: 59%
U87MG cells; TMZ EC50
  Number of nucleotides showing higher than 15% mutation frequency increase due to TMZ treatment: 417
U87MG cells; TMZ EC50, T = 3 days
  Mean Mutation Frequency: 60%
U87MG cells; TMZ EC-10
  effect on mutation frequency, combined data set (ANOVA, Student's t-test): significant increase
U87MG cells; TMZ EC-20
  effect on mutation frequency, combined data set (ANOVA, Student's t-test): significant increase
U87MG cells; TMZ EC-50
  effect on mutation frequency, combined data set (ANOVA, Student's t-test): significant increase

## NCCCC(N)(C(=O)O)C(F)F (racemic) [eflornithine, D,L-2-(difluoromethyl) ornithine monohydrochloride monohydrate]
ADAM 32 gene; 7 days
  mutation rate: 33.3%
ADAM 32 gene; 14 days
  mutation rate: 43.2%
GPR116 gene; 7 days
  mutation rate: 60.6%
GPR116 gene; 14 days
  mutation rate: 45.0%
MUC16 gene; 7 days
  mutation rate: 49.1%
MUC16 gene; 14 days
  mutation rate: 47.3%
TP53BP1 gene; 7 days
  mutation rate: 29.7%
TP53BP1 gene; 14 days
  mutation rate: 38.4%
U87MG cells; sequential DFMO 100 μM after TMZ EC-20
  effect on mutation rate compared to the TMZ-treated cells, combined data set (ANOVA, Student's t-test): significant decrease
U87MG cells; sequential eflornithine 50 μM after TMZ EC-10
  effect on mutation rate compared to the TMZ-treated cells, combined data set (ANOVA, Student's t-test): significant decrease
U87MG cells; sequential eflornithine 200 μM after TMZ EC-50
  effect on mutation rate compared to the TMZ-treated cells, combined data set (ANOVA, Student's t-test): significant decrease
